pIC50: −log10 of the molar value. Values after ≈ are worked out from the molar mass of the structure shown.
Experiments:
[1] = test system: Plasmodium falciparum; test: Antiplasmodial activity against Plasmodium falciparum Dd2 harboring HSP90 mutant; type: functional, organism-based
[2] = test system: Plasmodium falciparum; test: Antiplasmodial activity against Plasmodium falciparum Dd2; type: functional, organism-based
[3] = test system: Plasmodium falciparum; test: Antiplasmodial activity against Plasmodium falciparum Dd2 harboring CYTb-Qi mutant; type: functional, organism-based
[4] = test system: Plasmodium falciparum; test: Antiplasmodial activity against Plasmodium falciparum Dd2 harboring DHODH mutant; type: functional, organism-based
[5] = test system: Plasmodium falciparum; test: Antiplasmodial activity against Plasmodium falciparum Dd2 harboring CRT mutant; type: functional, organism-based
[6] = test system: Plasmodium falciparum; test: microbe, parasite or virus in culture; conditions: SB1, 72 h
Description: Antiplasmodial activity against Plasmodium falciparum SB1 after 72 hrs by SYBR I method

[7] = test system: Plasmodium falciparum; test: microbe, parasite or virus in culture; conditions: W2, 72 h
Description: Antiplasmodial activity against Plasmodium falciparum W2 after 72 hrs by SYBR I method

[8] = test system: Plasmodium falciparum; test: microbe, parasite or virus in culture; conditions: 7G8, 72 h
Description: Antiplasmodial activity against Plasmodium falciparum 7G8 after 72 hrs by SYBR I method

[9] = test system: Plasmodium falciparum; test: microbe, parasite or virus in culture; conditions: NF54, 72 h
[10] = Selectivity index, ratio of IC50 for human A549 cells to IC50 for Plasmodium falciparum; type: toxicity, cell-based; conditions: read-out: Ratio IC50
[11] = test system: Plasmodium falciparum; test: microbe, parasite or virus in culture; conditions: K1, 72 h
[12] = test system: Plasmodium falciparum; test: microbe, parasite or virus in culture; conditions: Dd2, 72 h
Description: Antiplasmodial activity against Plasmodium falciparum Dd2 after 72 hrs by SYBR I method

[13] = molecular target: Voltage-gated inwardly rectifying potassium channel KCNH2 (Homo sapiens, UniProt Q12809); test: Inhibition of human ERG
Sequence of Voltage-gated inwardly rectifying potassium channel KCNH2 (Q12809 whole entry): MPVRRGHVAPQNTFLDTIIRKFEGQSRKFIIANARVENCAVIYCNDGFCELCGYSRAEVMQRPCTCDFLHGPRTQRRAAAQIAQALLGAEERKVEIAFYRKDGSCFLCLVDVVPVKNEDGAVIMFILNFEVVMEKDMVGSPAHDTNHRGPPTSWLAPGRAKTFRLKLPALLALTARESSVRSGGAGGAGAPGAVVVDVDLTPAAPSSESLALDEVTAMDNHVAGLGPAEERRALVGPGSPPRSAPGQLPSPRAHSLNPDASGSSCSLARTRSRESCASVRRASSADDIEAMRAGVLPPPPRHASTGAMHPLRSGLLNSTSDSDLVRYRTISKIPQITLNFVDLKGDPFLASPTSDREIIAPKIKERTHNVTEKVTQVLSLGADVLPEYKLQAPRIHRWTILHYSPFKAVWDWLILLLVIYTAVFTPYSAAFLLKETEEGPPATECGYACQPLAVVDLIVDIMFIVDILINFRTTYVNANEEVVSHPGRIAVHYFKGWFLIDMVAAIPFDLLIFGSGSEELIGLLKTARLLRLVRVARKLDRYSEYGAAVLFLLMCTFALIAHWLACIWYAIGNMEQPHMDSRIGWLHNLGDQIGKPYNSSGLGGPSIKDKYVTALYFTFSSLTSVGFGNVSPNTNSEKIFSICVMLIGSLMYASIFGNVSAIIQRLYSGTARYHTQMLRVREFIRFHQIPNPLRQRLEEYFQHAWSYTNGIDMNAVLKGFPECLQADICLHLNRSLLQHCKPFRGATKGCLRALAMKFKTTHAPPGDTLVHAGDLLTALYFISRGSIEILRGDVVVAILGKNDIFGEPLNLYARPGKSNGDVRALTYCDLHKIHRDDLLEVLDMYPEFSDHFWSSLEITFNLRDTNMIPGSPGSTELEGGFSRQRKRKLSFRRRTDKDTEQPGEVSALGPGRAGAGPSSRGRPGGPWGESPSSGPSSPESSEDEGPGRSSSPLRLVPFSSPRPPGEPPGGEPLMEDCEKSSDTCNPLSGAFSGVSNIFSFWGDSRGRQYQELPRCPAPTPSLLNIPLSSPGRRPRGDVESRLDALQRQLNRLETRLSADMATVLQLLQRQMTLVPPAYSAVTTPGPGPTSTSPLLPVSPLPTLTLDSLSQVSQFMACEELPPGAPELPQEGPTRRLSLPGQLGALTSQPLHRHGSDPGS

[14] = Clearance in rat hepatocytes assessed per 1E6 cells; type: ADME, cell-based, Hepatocyte; conditions: read-out: CLH
[15] = Clearance in human liver microsomes; type: ADME; conditions: read-out: CLH
[16] = Clearance in mouse liver microsomes; type: ADME; conditions: read-out: CLH
[17] = Aqueous solubility of the compound; type: physicochemical; conditions: buffer
[18] = molecular target: Cytochrome P450 2C19 (Homo sapiens, UniProt P33261); test: Inhibition of CYP2C19 (unknown origin); type: ADME
Sequence of Cytochrome P450 2C19 (P33261 whole entry): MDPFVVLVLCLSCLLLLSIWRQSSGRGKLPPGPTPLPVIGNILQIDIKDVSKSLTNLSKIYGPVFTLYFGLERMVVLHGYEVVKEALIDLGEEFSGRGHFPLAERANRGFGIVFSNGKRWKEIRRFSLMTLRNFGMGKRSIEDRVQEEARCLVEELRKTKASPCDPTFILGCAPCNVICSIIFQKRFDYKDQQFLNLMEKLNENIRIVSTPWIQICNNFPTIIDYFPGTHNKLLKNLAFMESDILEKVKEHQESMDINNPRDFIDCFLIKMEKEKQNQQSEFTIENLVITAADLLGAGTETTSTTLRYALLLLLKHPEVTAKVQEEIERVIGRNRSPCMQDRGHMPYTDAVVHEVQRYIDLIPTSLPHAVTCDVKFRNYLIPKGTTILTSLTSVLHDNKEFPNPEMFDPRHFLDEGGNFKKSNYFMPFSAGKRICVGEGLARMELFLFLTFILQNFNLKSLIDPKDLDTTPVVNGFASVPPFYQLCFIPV

[19] = Fraction unbound in human plasma; type: ADME, cell-free
[20] = molecular target: Cytochrome P450 3A4 (Homo sapiens, UniProt P08684); test: Inhibition of CYP3A4 (unknown origin); type: ADME
Sequence of Cytochrome P450 3A4 (P08684 whole entry): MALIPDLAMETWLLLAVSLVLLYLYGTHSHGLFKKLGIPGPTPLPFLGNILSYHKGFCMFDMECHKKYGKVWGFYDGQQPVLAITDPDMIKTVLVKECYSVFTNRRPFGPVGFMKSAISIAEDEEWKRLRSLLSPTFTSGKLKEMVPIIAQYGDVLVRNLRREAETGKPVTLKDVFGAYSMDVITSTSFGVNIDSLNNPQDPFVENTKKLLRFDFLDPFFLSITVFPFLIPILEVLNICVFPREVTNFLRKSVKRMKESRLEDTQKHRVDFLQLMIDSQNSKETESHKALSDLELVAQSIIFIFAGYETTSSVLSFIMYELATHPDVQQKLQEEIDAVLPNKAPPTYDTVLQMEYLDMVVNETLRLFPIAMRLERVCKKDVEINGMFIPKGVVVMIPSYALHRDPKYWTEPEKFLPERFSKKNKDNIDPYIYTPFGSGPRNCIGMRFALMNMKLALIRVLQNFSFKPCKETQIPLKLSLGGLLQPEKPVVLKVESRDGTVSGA

[21] = molecular target: Cytochrome P450 2D6 (Homo sapiens, UniProt P10635); test: Inhibition of CYP2D6 (unknown origin); type: ADME
Sequence of Cytochrome P450 2D6 (P10635 whole entry): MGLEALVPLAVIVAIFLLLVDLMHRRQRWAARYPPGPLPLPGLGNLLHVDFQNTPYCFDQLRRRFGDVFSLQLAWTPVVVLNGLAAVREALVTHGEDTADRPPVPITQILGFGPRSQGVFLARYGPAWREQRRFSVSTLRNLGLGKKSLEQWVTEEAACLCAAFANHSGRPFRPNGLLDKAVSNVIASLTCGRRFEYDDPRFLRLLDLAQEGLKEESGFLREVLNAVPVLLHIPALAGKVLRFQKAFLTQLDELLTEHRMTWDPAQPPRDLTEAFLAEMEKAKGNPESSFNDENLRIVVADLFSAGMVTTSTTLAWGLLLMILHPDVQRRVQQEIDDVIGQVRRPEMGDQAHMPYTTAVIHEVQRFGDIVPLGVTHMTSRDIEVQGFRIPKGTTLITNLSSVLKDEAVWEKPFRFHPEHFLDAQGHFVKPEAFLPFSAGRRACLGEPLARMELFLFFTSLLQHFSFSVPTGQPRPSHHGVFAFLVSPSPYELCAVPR

[22] = molecular target: Cytochrome P450 2C9 (Homo sapiens, UniProt P11712); test: Inhibition of CYP2C9 (unknown origin); type: ADME
Sequence of Cytochrome P450 2C9 (P11712 whole entry): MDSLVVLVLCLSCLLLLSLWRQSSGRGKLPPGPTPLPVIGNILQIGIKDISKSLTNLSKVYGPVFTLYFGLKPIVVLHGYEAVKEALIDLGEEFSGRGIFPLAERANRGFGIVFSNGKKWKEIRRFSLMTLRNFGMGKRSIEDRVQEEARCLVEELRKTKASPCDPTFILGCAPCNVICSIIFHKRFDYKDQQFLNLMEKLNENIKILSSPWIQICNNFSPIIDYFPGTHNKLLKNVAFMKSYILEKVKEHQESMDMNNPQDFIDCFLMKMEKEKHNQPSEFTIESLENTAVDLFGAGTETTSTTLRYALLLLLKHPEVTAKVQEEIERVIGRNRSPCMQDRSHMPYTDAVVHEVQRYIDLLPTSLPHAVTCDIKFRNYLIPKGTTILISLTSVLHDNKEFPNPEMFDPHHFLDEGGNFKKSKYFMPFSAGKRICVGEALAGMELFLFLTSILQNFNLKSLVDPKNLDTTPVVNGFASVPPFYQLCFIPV

[23] = molecular target: T1, Cytochrome P450 1A2 (Homo sapiens, UniProt P05177); test: Inhibition of CYP1A2 (unknown origin); type: ADME
T1 sequence (P05177 whole entry): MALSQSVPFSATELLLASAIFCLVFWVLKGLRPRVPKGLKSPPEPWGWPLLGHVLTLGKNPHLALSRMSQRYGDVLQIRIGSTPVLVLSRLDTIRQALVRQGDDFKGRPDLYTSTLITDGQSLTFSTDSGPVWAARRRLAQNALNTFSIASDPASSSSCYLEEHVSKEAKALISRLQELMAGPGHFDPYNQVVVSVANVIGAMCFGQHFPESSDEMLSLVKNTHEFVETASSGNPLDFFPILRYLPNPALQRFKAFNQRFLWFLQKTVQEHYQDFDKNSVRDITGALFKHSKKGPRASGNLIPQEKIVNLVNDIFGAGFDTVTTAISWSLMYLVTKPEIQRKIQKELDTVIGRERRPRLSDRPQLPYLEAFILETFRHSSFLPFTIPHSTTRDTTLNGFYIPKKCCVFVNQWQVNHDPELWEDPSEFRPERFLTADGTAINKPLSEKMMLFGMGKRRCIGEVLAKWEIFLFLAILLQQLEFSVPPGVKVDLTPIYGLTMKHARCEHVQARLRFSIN

[24] = Lipophilicity, log D of the compound; type: physicochemical; conditions: octanol/water

SMILES: CN1CCN(C(=O)c2ccc3c(c2)N(Cc2c(F)cccc2Cl)C(=O)c2ccccc2S3)CC1
- pIC50 [1]: 8.07
- pIC50 [2]: 8.14
- pIC50 [3]: 8.50
- pIC50 [4]: 7.77
- pIC50 [5]: 5.98

SMILES: Cc1nc2c(C#N)cccc2n1-c1ccc(C(=O)NC2CC2)s1
- pIC50 [1]: 7.79
- pIC50 [2]: 8.24
- pIC50 [3]: 8.00
- pIC50 [4]: 7.11
- pIC50 [5]: 8.29

SMILES: Nc1nc2ccccc2n1-c1ccccc1O
- pIC50 [6]: 6.79
- pIC50 [7]: 6.59
- pIC50 [8]: 7.18
- pIC50 [9]: 7.08
- selectivity ratio [10]: 1190
- pIC50 [11]: 7.27
- pIC50 [12]: 6.48

SMILES: Nc1nccn1CC(O)c1ccc(Cl)cc1Cl (racemic)
- pIC50 [9]: 6.42
- selectivity ratio [10]: > 263
- pIC50 [11]: 6.55

SMILES: Nc1nccn1CC(O)c1ccc(Cl)cc1F (racemic)
- pIC50 [9]: < 5.70
- selectivity ratio [10]: > 50
- pIC50 [11]: < 5.70
- pIC50 [13]: 4.22

SMILES: Cc1cc(Cl)ccc1C(O)Cn1ccnc1N (racemic)
- pIC50 [9]: < 5.70
- selectivity ratio [10]: > 50
- pIC50 [11]: < 5.70

SMILES: Nc1nccn1CC(O)c1cccc(Cl)c1Cl (racemic)
- pIC50 [9]: 6.46
- pIC50 [11]: 6.64

SMILES: Cc1cn(CC(O)c2ccc(Cl)cc2Cl)c(N)n1 (racemic)
- pIC50 [9]: 6.42
- pIC50 [11]: 6.60

SMILES: Cc1nc(N)n(CC(O)c2ccc(Cl)cc2Cl)c1C (racemic)
- pIC50 [9]: 6.52
- selectivity ratio [10]: 220
- pIC50 [11]: 6.70
- pIC50 [13]: < 4.48

SMILES: Nc1nc(C2CC2)cn1CC(O)c1ccc(Cl)cc1Cl (racemic)
- pIC50 [9]: 6.92
- selectivity ratio [10]: 241
- pIC50 [11]: 7.15
- pIC50 [13]: 5.35

SMILES: Nc1nc(-c2ccc(F)cc2)cn1CC(O)c1ccc(C(F)(F)F)cc1Cl (racemic)
- pIC50 [9]: 6.85
- selectivity ratio [10]: 72
- pIC50 [11]: 7.22
- pIC50 [13]: 4.60

SMILES: Nc1nc2ccccc2n1CC(O)c1ccc(Cl)cc1Cl (racemic)
- hepatocyte CLint [14]: 155 µL/min/1e6 cells
- microsomal CLint [15]: 25 µL/min/mg
- pIC50 [6]: 7.37
- pIC50 [7]: 7.94
- pIC50 [8]: 8.39
- microsomal CLint [16]: 213 µL/min/mg
- pIC50 [9]: 7.74
- pIC50 [11]: 8.15
- pIC50 [12]: 7.52

SMILES: N#Cc1ccc2nc(N)n(CC(O)c3cccc(Cl)c3Cl)c2c1 (racemic)
- hepatocyte CLint [14]: 53 µL/min/1e6 cells
- microsomal CLint [15]: 96 µL/min/mg
- pIC50 [9]: 7.54
- pIC50 [11]: 6.52

SMILES: CS(=O)(=O)c1ccc2nc(N)n(CC(O)c3cccc(Cl)c3Cl)c2c1 (racemic)
- hepatocyte CLint [14]: 44 µL/min/1e6 cells
- microsomal CLint [15]: 68 µL/min/mg
- pIC50 [9]: < 5.70
- selectivity ratio [10]: > 50
- pIC50 [11]: < 5.70
- pIC50 [13]: < 4.48

SMILES: Nc1nc2ccc(Cl)cc2n1CC(O)c1cccc(Cl)c1Cl (racemic)
- hepatocyte CLint [14]: 22 µL/min/1e6 cells
- microsomal CLint [15]: 49 µL/min/mg
- pIC50 [9]: 6.49
- selectivity ratio [10]: 2.3
- pIC50 [11]: 7.40
- pIC50 [13]: < 4.48

SMILES: Nc1nc2ccc(C(F)(F)F)cc2n1CC(O)c1ccc(C(F)(F)F)cc1Cl (racemic)
- hepatocyte CLint [14]: 31 µL/min/1e6 cells
- microsomal CLint [15]: 9 µL/min/mg
- pIC50 [6]: 6.92
- pIC50 [7]: 7.62
- solubility [17]: 3 µM (≈ 1.27 µg/mL)
- pIC50 [18]: 5.57
- pIC50 [8]: 8.49
- fraction unbound [19]: < 0.01
- pIC50 [20]: < 4.52
- pIC50 [21]: 4.58
- microsomal CLint [16]: 62 µL/min/mg
- pIC50 [9]: 7.28
- selectivity ratio [10]: 94
- pIC50 [11]: 8.00
- pIC50 [22]: 4.55
- pIC50 [13]: < 4.98
- pIC50 [23]: 4.53
- pIC50 [12]: 7.31
- logD [24]: > 4.6

Reference: ChEMBL document CHEMBL3286148, “Aminoazabenzimidazoles, a novel class of orally active antimalarial agents” (J Med Chem, 2014)
